Each structure is given as a SMILES string.

One may read the IC50 as the concentration needed to halve the response being measured.

The first experiment deals with T1, Human Polymorphonuclear Leukocyte Elastase (Homo sapiens, UniProt P08246).
T1 construct: Crude extract of human polymorphonuclear leukocytes (PMN) containing elastase activity; from tissue; host or cells: human polymorphonuclear leukocytes (crude extract)
T1 sequence (P08246 30-247 limits assumed): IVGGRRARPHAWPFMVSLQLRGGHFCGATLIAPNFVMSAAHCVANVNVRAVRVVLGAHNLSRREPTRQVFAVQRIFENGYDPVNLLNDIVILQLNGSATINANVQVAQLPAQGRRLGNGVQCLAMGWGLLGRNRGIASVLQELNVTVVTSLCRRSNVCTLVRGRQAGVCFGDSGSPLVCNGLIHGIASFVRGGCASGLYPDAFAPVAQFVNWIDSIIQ
Description: Inhibition of human polymorphonuclear leukocyte elastase via hydrolysis of N-t-Boc-alanyl-alanyl-prolylalanine-p-nitroanilide. Format: biochemical. Particulars: Table I; crude PMN extract, Boc-AAPAN substrate, pH 7.5; 50% inhibition 2 minutes after zero time. The protocol:
Protocol Enzyme Assays for the Inhibition of Human Polymorphonuclear Leukocyte Elastase Via Hydrolysis of N-t-Boc-alanyl-alanyl-prolylalanine-p-nitroanilide Reagents:
0.05M TES (N-tris[hydroxymethyl]methyl-2-amino-ethanesulfonic acid) Buffer, pH 7.5.
0.2 mM N-t-Boc-alanyl-alanyl-prolyl-alanine-p-nitroanilide (Boc-AAPAN).
To prepare substrate, the solid (m.w. 550) was first dissolved in 10.0 ml DMSO. Buffer at pH 7.5 was then added to a final volume of 100 ml.
Crude extract of human polymorphonuclear leukocytes (PMN) containing elastase activity.
Inhibitors (cephalosporin sulfone esters) to be tested dissolved in DMSO just before use.
To 1.0 ml of 0.2 mM Boc-AAPAN in a cuvette, 0.01-0.1 ml of DMSO with or without inhibitor was added. After mixing, a measurement was taken at 410 mμ to detect any spontaneous hydrolysis due to presence of test compound. 0.05 Milliliters of PMN extract was then added and the ΔOD/min at 410 mμ was measured and recorded. Beckman model 35 spectrophotometer was used.
Results were reported as ED50, i.e., effective dosage in micrograms per milliliter (μg/ml) for 50% inhibition of the enzyme activity 2 minutes after zero time.
The elastase activity in the crude PMN extract may vary from one preparation to another. A control of each new batch is run, and the volume added in the assay procedure is adjusted according to activity.
On to `CO[C@H]1C(=O)N2C(c3nnn[nH]3)=C(COC(=O)N(C)C)CS(=O)(=O)[C@H]12` [R^1=OCH3, A=(CH3)2NCOO, R=H, Q^1=H], for which the IC50 was 5370 nM. Same read-out and setting: with `CO[C@H]1C(=O)N2C(c3nnn[nH]3)=C(COC(C)=O)CS(=O)(=O)[C@H]12` [R^1=OCH3, A=CH3COO, R=H, Q^1=H, 3-Acetoxymethyl-7α-methoxy-4-(tetrazol-5-yl)-3-cephem-1,1-dioxide] the figure was 58300 nM; with `COc1ccc(Cn2nnnc2C2=C(COC(C)=O)CS(=O)(=O)[C@@H]3[C@@H](OC)C(=O)N23)cc1` [R^1=OCH3, A=CH3COO, R=PMB, Q^1=H, 3-acetoxymethyl-7α-methoxy-4-[1-(p-methoxybenzyl)tetrazol-5-yl]-3-cephem-1,1-dioxide], 1730 nM. As to `CO[C@H]1C(=O)N2C(c3nnn[nH]3)=C(COC(=O)NCc3ccccc3)CS(=O)(=O)[C@H]12` [R^1=OCH3, A=.phi.CH2NHCOO, R=H, Q^1=H, 3-(N-Benzyl-carbamoyloxy-methyl)-7α-methoxy-4-(1H-tetrazol-5-yl)-3-cephem-1,1-dioxide], the IC50 was 9210 nM. On the same count and under the same terms, with `COc1ccc(Cn2nnnc2C2=C(COC(=O)N(C)C)CS(=O)(=O)[C@@H]3[C@@H](OC)C(=O)N23)cc1` [R^1=OCH3, A=(CH3)2NCOO, R=PMB, Q^1=H] the figure was 1420 nM; with `COc1ccc(Cn2nnnc2C2=C(COC(=O)NCc3ccccc3)CS(=O)(=O)[C@@H]3[C@@H](OC)C(=O)N23)cc1` [R^1=OCH3, A=.phi.CH2NHCOO, R=PMB, Q^1=H, 3-(N-benzyl-carbamoyloxy-methyl)-7α-methoxy-4-(1-p-methoxybenzyl-tetrazol-5-yl)-3-cephem-1,1-dioxide], 541 nM.

Staying with this experiment, now noted: Table II; crude PMN extract, Boc-AAPAN substrate, pH 7.5; 50% inhibition 2 minutes after zero time.
`CO[C@H]1C(=O)N2C(c3nnn(CC(=O)O)n3)=C(COC(C)=O)CS(=O)(=O)[C@H]12` [Table II: A=CH3COO, R=CH2COOH, Q^1=H] gave an IC50 of 7470 nM.

Turning to `CO[C@H]1C(=O)N2C(c3nnn(Cc4ccc(C(=O)O)cc4)n3)=C(COC(C)=O)CS(=O)(=O)[C@H]12` [3-acetoxymethyl-7α-methoxy-4-[2-(-hydroxycarbonylbenzyl)tetrazol-5-yl]-3-cephem-1,1-dioxide], half-maximal inhibition (IC50) was put at 419 nM. Consider `CO[C@H]1C(=O)N2C(c3nnn(Cc4ccc(C(=O)OC(C)(C)C)cc4)n3)=C(COC(C)=O)CS(=O)(=O)[C@H]12` [3-acetoxymethyl-7α-methoxy-4-[2-(p-t-butoxycarbonylbenzyl)tetrazol-5-yl]-3-cephem-1,1-dioxide], for which the IC50 is 75 nM. Consider `CO[C@H]1C(=O)N2C(c3nnn(Cc4ccccc4C(=O)OC(C)(C)C)n3)=C(COC(C)=O)CS(=O)(=O)[C@H]12`, for which it took 562 nM to reach half-maximal inhibition (IC50). Take `CO[C@H]1C(=O)N2C(c3nnn(C)n3)=C(COC(C)=O)CS(=O)(=O)[C@H]12` [Table II: A=CH3COO, R=CH3, Q^1=H]: the IC50 is 560 nM.

As to `CO[C@H]1C(=O)N2C(c3nnn(Cc4ccccc4C(=O)O)n3)=C(COC(C)=O)CS(=O)(=O)[C@H]12`, the concentration for half-maximal inhibition (IC50) was 628 nM.

The same experiment, now with this note: Table III, lower part; crude PMN extract, Boc-AAPAN substrate, pH 7.5; 2 minutes after zero time.
In the case of `COc1ccc(Cn2nnnc2C2N3C(=O)C(NC(=O)C(F)(F)F)C3S(=O)(=O)C2(C)C)cc1` (centres unmarked) [drawing 32, n=2], it took 409 nM to reach half-maximal inhibition (IC50). With `COc1ccc(Cn2nnnc2C2N3C(=O)C(NC(=O)C(F)(F)F)C3SC2(C)C)cc1` (centres unmarked) [drawing 32, n=0], 21900 nM corresponded to half-maximal inhibition (IC50).

Still in this experiment, the particulars now being: Table III, upper part; crude PMN extract, Boc-AAPAN substrate, pH 7.5; 2 minutes after zero time.
`COc1ccc(Cn2nnnc2[C@@H]2N3C(=O)[C@@H](NC(=O)C(F)(F)F)C3SC2(C)C)cc1` (some centres unmarked) [drawing 31, n=0] gave an IC50 of 4380 nM.

Consider `COc1ccc(Cn2nnnc2[C@@H]2N3C(=O)[C@@H](NC(=O)C(F)(F)F)C3[S+]([O-])C2(C)C)cc1` (some centres unmarked) [drawing 31, n=1], for which the IC50 was 4230 nM. Same read-out and setting: with `COc1ccc(Cn2nnnc2[C@@H]2N3C(=O)[C@@H](NC(=O)C(F)(F)F)C3S(=O)(=O)C2(C)C)cc1` (some centres unmarked) [drawing 31, n=2] the figure was 1020 nM.

The record behind these values is patent US4699904A, “Tetrazolyl derivatives of β-lactams useful as elastase inhibitors” (Merck & Co., Inc., priority 1985, dated 1987).
